# Experimental data: patent publication US6509371B1, “Compositions containing Bergamottin for increasing the oral bioavailability of pharmaceutical agents” (Warner-Lambert Company, priority 1997, dated 2003)
# Like-named read-outs stand apart in the source and are kept apart here.
# Tests used:
# P450 3A4 [1] = biological target: T1, P450 3A4 (Homo sapiens, UniProt P08684); assay: BG-mediated inactivation of P450 3A4 in a reconstituted system, testosterone 6β-hydroxylation activity; conditions: reconstituted system
# Target sequence in this assay (P08684 with tags, fused parts or gaps): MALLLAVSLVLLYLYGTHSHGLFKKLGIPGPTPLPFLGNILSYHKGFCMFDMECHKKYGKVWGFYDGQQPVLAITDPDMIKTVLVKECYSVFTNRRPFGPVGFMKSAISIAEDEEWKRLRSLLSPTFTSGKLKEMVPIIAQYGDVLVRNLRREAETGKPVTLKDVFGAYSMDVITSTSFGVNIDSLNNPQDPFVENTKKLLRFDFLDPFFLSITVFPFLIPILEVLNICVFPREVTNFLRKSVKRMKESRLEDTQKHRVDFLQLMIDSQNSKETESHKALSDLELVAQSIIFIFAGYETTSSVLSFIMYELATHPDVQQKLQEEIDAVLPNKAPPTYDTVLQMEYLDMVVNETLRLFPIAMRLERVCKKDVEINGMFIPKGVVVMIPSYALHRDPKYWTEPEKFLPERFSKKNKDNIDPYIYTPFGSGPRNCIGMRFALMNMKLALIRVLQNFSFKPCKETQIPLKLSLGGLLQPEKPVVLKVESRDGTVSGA
# [2] = cited from earlier work
# P450 3A4 [3] = biological target: T1, P450 3A4; conditions: in vivo; cited from earlier work
# Target sequence in this assay (P08684 whole entry): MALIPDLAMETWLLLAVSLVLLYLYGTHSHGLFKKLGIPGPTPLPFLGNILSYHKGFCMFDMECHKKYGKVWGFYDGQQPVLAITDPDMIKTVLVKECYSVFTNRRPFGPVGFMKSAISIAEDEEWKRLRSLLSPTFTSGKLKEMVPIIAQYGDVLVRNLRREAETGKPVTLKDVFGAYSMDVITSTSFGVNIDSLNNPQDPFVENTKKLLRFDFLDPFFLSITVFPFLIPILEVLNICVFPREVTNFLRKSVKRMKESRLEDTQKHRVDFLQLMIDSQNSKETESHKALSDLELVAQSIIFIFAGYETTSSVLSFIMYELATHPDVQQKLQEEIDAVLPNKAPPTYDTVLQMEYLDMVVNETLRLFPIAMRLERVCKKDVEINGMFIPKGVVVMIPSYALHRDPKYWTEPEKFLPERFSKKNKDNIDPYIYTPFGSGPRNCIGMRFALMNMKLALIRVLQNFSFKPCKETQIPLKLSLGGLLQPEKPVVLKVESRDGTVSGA
# P450 3A4 [4] = biological target: T1, P450 3A4; conditions: other potent inactivators of P450 3A4, literature; cited from earlier work
# Target sequence in this assay (P08684 whole entry): as above
SMILES,Oral Bioavailability ([2]; oral),Fraction Metabolized (P450 3A4 [3]),other results
"CC(=CCOc1c2ccoc2cc2oc(=O)ccc12)CCC(O)C(C)(C)O (stereo not drawn) [6′,7′-dihydroxybergamottin]",–,–,Kinactivation (maximal rate constant of inactivation) (P450 3A4 [1]): 0.16 min⁻¹
COc1ccc(CCN2CCC(Nc3nc4ccccc4n3Cc3ccc(F)cc3)CC2)cc1 [Astemizole],Low,>90%,–
CC[C@H]1OC(=O)[C@H](C)[C@@H](O[C@H]2C[C@@](C)(OC)[C@@H](O)[C@H](C)O2)[C@H](C)[C@@H](O[C@@H]2O[C@H](C)C[C@H](N(C)C)[C@H]2O)[C@](C)(O)C[C@@H](C)CN(C)[C@H](C)[C@@H](O)[C@]1(C)O [Azithromycin],35-45%,–,–
NC(=O)N1c2ccccc2C=Cc2ccccc21 [Carbamazepine],>70%,>90%,–
COc1cc(N)c(Cl)cc1C(=O)NC1CCN(CCCOc2ccc(F)cc2)CC1OC (stereo not drawn) [Cisapride],35-40%,–,–
CC[C@H]1OC(=O)[C@H](C)[C@@H](O[C@H]2C[C@@](C)(OC)[C@@H](O)[C@H](C)O2)[C@H](C)[C@@H](O[C@@H]2O[C@H](C)C[C@H](N(C)C)[C@H]2O)[C@](C)(OC)C[C@@H](C)C(=O)[C@H](C)[C@@H](O)[C@]1(C)O [Clarithromycin],50-55%,>70%,–
CN1C[C@H](C(=O)N[C@]2(C)O[C@@]3(O)[C@@H]4CCCN4C(=O)[C@H](Cc4ccccc4)N3C2=O)C=C2c3cccc4[nH]cc(c34)C[C@H]21 [Ergotamine],<1%,>90%,–
CC[C@H]1OC(=O)[C@H](C)[C@@H](O[C@H]2C[C@@](C)(OC)[C@@H](O)[C@H](C)O2)[C@H](C)[C@@H](O[C@@H]2O[C@H](C)C[C@H](N(C)C)[C@H]2O)[C@](C)(O)C[C@@H](C)C(=O)[C@H](C)[C@@H](O)[C@]1(C)O [Erythromycin],30-65%,–,–
COc1cc([C@@H]2c3cc4c(cc3[C@@H](O[C@@H]3O[C@@H]5CO[C@@H](C)O[C@H]5[C@H](O)[C@H]3O)[C@H]3COC(=O)[C@H]23)OCO4)cc(OC)c1O [Etoposide],35-70%,–,–
CCOC(=O)C1=C(C)NC(C)=C(C(=O)OC)C1c1cccc(Cl)c1Cl (stereo not drawn) [Felodipine],15-25%,–,–
CC(C)n1c(/C=C/C(O)CC(O)CC(=O)O)c(-c2ccc(F)cc2)c2ccccc21 (stereo not drawn) [Fluvastatin],50-9%,˜90%,–
COC(=O)C1=C(C)NC(C)=C(C(=O)OC(C)C)C1c1cccc2nonc12 (stereo not drawn) [Isradipine],15-25%,>90%,–
CCC(C)n1ncn(-c2ccc(N3CCN(c4ccc(OCC5COC(Cn6cncn6)(c6ccc(Cl)cc6Cl)O5)cc4)CC3)cc2)c1=O (stereo not drawn) [Itraconazole],44-55%,>90%,–
Cc1ncc2n1-c1ccc(Cl)cc1C(c1ccccc1F)=NC2 [Midazolam],–,>90%,"Oral Bioavailability ([2]; in vivo, po): 40-50%"
COC(=O)C1=C(C)NC(C)=C(C(=O)OCCN(C)Cc2ccccc2)C1c1cccc([N+](=O)[O-])c1 (stereo not drawn) [Nicardipine],20-30%,>90%,–
COCCOC(=O)C1=C(C)NC(C)=C(C(=O)OC(C)C)C1c1cccc([N+](=O)[O-])c1 (stereo not drawn) [Nimodipine],15-10%,–,–
COC(=O)C1=C(C)NC(C)=C(C(=O)OCC(C)C)C1c1ccccc1[N+](=O)[O-] (stereo not drawn) [Nisoldipine],˜5%,–,–
CCOC(=O)C1=C(C)NC(C)=C(C(=O)OC)C1c1cccc([N+](=O)[O-])c1 (stereo not drawn) [Nitrendipine],16-6%,>90%,–
O=c1[nH]c2ccccc2n1C1CCN(CCCC(c2ccc(F)cc2)c2ccc(F)cc2)CC1 [Pimozide],–,>90%,–
CC[C@H](C)C(=O)O[C@H]1C[C@H](O)C=C2C=C[C@H](C)[C@H](CC[C@@H](O)C[C@@H](O)CC(=O)O)[C@H]21 [Pravastatin],25-10%,>50%,–
CO[C@H]1/C=C/O[C@@]2(C)Oc3c(C)c(O)c4c(c3C2=O)C2=NC3(CCN(CC(C)C)CC3)NC2=C(NC(=O)/C(C)=C\C=C\[C@H](C)[C@H](O)[C@@H](C)[C@@H](O)[C@@H](C)[C@H](OC(C)=O)[C@@H]1C)C4=O [Rifabutin],20-12%,>90%,–
CC(C)(C)NC(=O)[C@@H]1C[C@@H]2CCCC[C@@H]2CN1C[C@@H](O)[C@H](Cc1ccccc1)NC(=O)[C@H](CC(N)=O)NC(=O)c1ccc2ccccc2n1 [Saquinavir],–,>90%,–
CN[C@H]1CC[C@@H](c2ccc(Cl)c(Cl)c2)c2ccccc21 [Sertraline],–,>90%,–
"CO[C@H]1C[C@@H]2CC[C@@H](C)[C@@](O)(O2)C(=O)C(=O)N2CCCC[C@H]2C(=O)O[C@H]([C@H](C)C[C@@H]2CC[C@@H](O)[C@H](OC)C2)CC(=O)[C@H](C)/C=C(\C)[C@@H](O)[C@@H](OC)C(=O)[C@H](C)C[C@H](C)/C=C/C=C/C=C/1C [Sirolimus(rapamycin), Sirolimus]",20-10%,>90%,–
"C=CC[C@@H]1/C=C(\C)C[C@H](C)C[C@H](OC)[C@H]2O[C@@](O)(C(=O)C(=O)N3CCCC[C@H]3C(=O)O[C@H](/C(C)=C/[C@@H]3CC[C@@H](O)[C@H](OC)C3)[C@H](C)[C@@H](O)CC1=O)[C@H](C)C[C@@H]2OC [Tacrolimus (FK506), Tacrolimus]",20-15%,>90%,–
C[C@]12CC[C@H]3[C@@H](CCC4=CC(=O)CC[C@@]43C)[C@@H]1CC[C@@H]2O [Testosterone],Poor,>90%,–
Cc1nnc2n1-c1ccc(Cl)cc1C(c1ccccc1Cl)=NC2 [Triazolam],45-70%,>90%,–
CC[C@]1(O)C[C@@H]2CN(CCc3c([nH]c4ccccc34)[C@@](C(=O)OC)(c3cc4c(cc3OC)N(C)[C@H]3[C@@](O)(C(=O)OC)[C@H](OC(C)=O)[C@]5(CC)C=CCN6CC[C@]43[C@@H]65)C2)C1 [Vinblastine],Poor,>50%,–
CC[C@]1(O)C[C@H]2CN(CCc3c([nH]c4ccccc34)[C@@](C(=O)OC)(c3cc4c(cc3OC)N(C=O)[C@H]3[C@@](O)(C(=O)OC)[C@H](OC(C)=O)[C@]5(CC)C=CCN6CC[C@]43[C@@H]65)C2)C1 [Vincristine],Poor,>50%,–
C#C[C@]1(O)C=C[C@H]2[C@@H]3CCC4=CC(=O)CC[C@@H]4[C@H]3CC[C@@]21CC [gestodene],–,–,Kinactivation (P450 3A4 [4]): 0.4 min⁻¹
